In patent US20030069276A1, “Amino piperidine derivatives” (priority 2001, published 2003) one finds IC50 data, which are given here for 6 compounds.

Sequence of human CCR5 (P51681 whole entry): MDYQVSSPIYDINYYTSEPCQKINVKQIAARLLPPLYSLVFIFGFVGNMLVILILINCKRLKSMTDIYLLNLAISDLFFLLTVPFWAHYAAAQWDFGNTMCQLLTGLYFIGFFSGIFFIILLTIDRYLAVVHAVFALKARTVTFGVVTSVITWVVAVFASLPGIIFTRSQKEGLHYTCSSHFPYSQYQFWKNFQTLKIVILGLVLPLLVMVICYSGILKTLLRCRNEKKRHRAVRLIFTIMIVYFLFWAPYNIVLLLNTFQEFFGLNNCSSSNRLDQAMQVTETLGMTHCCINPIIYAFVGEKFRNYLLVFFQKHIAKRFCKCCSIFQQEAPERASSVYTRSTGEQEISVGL

For the assay, the target named is human CCR5 (Homo sapiens, UniProt P51681). Nature of the assay: gp120-sCD4-CCR5 binding assay (FACS). As to conditions: CHO-K1 cell line stably transfected with the human CCR5 gene; biotinylated gp120 (JRFL strain) and soluble recombinant CD4; 1% DMSO. The method, then:
gp120-sCD4-CCR5 Binding Assay:
The gp120-sCD4-CCR5 binding assay was carried out as previously described (Dragic, T., A. Trkola, et al. (2000). “A binding pocket for a small molecule inhibitor of HIV-1 entry within the transmembrane helices of CCR5.” Proc Natl Acad Sci USA 97: 5639-44.) with the following minor modifications: the cell line used for these experiments was a CHO-K1 cell line stably transfected with the human CCR5 gene; the gp120-CD4 complex comprised recombinant biotinylated gp120 (JRFL strain) and soluble recombinant CD4; and all compounds were tested in a final concentration of 1% DMSO.
All reagents and cell lines were obtained from Progenics Pharmaceuticals Inc, Tarrytown, N.Y., USA, and are commercially available or can be prepared according to the methods described and the information given in the papers above.
The IC50 is the concentration at which inhibition is half-maximal. Take `CNC(=O)N(Cc1ccccc1)C1CCN(Cc2nc(-c3ccc(C(F)(F)F)cc3)[nH]c2-c2ccccc2)CC1` [1-Benzyl-3-methyl-1-[1-[[5-phenyl-2-[4-(trifluoromethyl)phenyl]-1H-imidazol-4-yl]methyl]-4-piperidinyl]urea]: the IC50 was 19100 nM.
On to `Cc1[nH]c(-c2ccc(C(F)(F)F)cc2)nc1CN1CCC(N(Cc2ccccc2)C(=O)Nc2ccc([N+](=O)[O-])cc2)CC1` [1-Benzyl-1-[1-[[2-[4-(trifluoromethyl)phenyl]-5-methyl-1H-imidazol-4-yl]methyl]-4-piperidinyl]-3-(4-nitrophenyl)urea], for which the IC50 was 450 nM.
Regarding `CNC(=O)N(Cc1ccccc1)C1CCN(Cc2nc(-c3ccccc3OC)[nH]c2C)CC1` [1-Benzyl-1-{1-[2-(2-methoxy-phenyl)-5-methyl-1H-imidazol-4-ylmethyl]-piperidin-4-yl}-3-methyl-urea], the IC50 was 9600 nM.
`CNC(=O)N(Cc1ccccc1)C1CCN(Cc2c(C)nc(-c3ccc(C(F)(F)F)cc3)n2Cc2ccccc2)CC1` [1-Benzyl-1-[1-[[3-benzyl-5-methyl-2-[4-(trifluoromethyl)phenyl]-3H-imidazol-4-yl]methyl]-4-piperidinyl]-3-methylurea]: the IC50 was determined as 1100 nM.
With `CNC(=O)N(Cc1ccccc1)C1CCN(Cc2nc(-c3ccc(C(F)(F)F)cc3)[nH]c2C)CC1` [1-Benzyl-3-methyl-1-[1-[[5-methyl-2-[4-(trifluoromethyl)phenyl]-1H-imidazol-4-yl]methyl]-4-piperidinyl]urea], the IC50 is 110 nM.
`Cc1ccc(-c2nc(CN3CCC(N(Cc4ccccc4)C(=O)Nc4ccccc4)CC3)c(C)[nH]2)cc1` [1-Benzyl-1-[1-[5-methyl-2-(4-methylphenyl)-1H-imidazol-4-ylmethyl]-4-piperidinyl]-3-phenylurea]: the IC50 amounted to 30 nM.
